Measurements taken from patent publication US10894785B2, “Piperidine derivatives for use in the treatment of pancreatic cancer” (CENTRE HOSPITALIER UNIVERSITAIRE VAUDOIS CHUV, priority 2016, dated 2021).

Experiments:
[1] = Pharmacokinetics after intraperitoneal administration in female SCID mice (plasma, LC-MS/MS, non compartmental analysis); assay type: in vivo; conditions: 20 mg/kg IP; for CL: CL calculated as dose/AUC; for Percentage of extrapolated AUC from T6 h to infinity: relative to AUC0-inf; for T1/2α: t½α (0 -> 6 h); for T1/2β: t½β (6 -> 24 h); for Cmax / Tmax / AUC(0-inf) / AUC(0-t): mouse; for AUC(0-inf): log-trapezoidal rule, extrapolated to infinity; for AUC(0-t): read-out: AUC0-8 h
Method: The pharmacokinetics parameters of FK866, FE1199, VAL22-2 and MPM07 were determined following intraperitoneal administration (IP) in female SCID mice.
• SCID (Severe Combined ImmunoDeficiency) mice female total 144 • 25 mM in DMSO (dimethylsulfoxyde) of each test drug • Saline solution (0.9%)
Test drugs were dissolved in saline solution at 20 mg/ml. All dosing solutions were controlled by HPLC (High-Performance Liquid Chromatography) analysis. Mouse weight is estimated around 20 g.
Three mice per time point were used in each group.
Blood samples were collected on citrate at 10 min, 30 min, 1 h, 2 h, 4 h, 6 h, 8 h and 24 hours after drug administration. Following centrifugation, resulting plasma was stored at […] pending bioanalysis. Samples were analyzed by LC-MS/MS (Liquid chromatography tandem-mass spectrometry); the lower limit of quantification achieved was between 3 and 12 nM depending on drug. Non compartmental pharmacokinetic analysis was performed on plasma concentration data.

[2] = tested on: pancreatic ductal adenocarcinoma (Panc-1); test: Anti-tumor activity on Panc-1: cell viability by sulforhodamine or MTT assay; assay type: cell-based; conditions: Homo sapiens, Panc-1 cells, 96 hours treatment, 0.001-1000 nM
Method: The compounds according to the present invention were evaluated for their anti-tumor activities on pancreatic ductal adenocarcinoma (Panc-1). To this end, 0.5×10^6 human malignant cells were treated with various concentrations (0.001-1000 nM) for 96 hours of FK866 or the compounds according to the present invention. Subsequently cell viability was determined using either sulforhodamine assays as described in Caffa I, et al. (Oncotarget. 2015 May 20; 6(14):11820-32) or MTT assays. Sulforhodamine B is a dye able that binds to cellular proteins. […] For MTT assays, human malignant cells were plated in triplicate on 96-well plates and treated as mentioned above. After 96 hours of incubation, 15 μL of dye solution was added to each well and cells were incubated for an additional 4 hours. Stop solution (100 μL/well) was added for 1 hour and the absorbance was read at 570 nm on a spectrophotometer. To confirm whether the cytotoxicity exerted by these compounds involves programmed cell death, drug-induced cell death was evaluated using annexin V and 7AAD double staining as described by the manufacturer for assessing apoptosis or autophagic-cell death using a Beckman Coulter Cytomics Gallios flow cytometer. Dead cells were identified as annexinV+ and/or 7AAD+. GraphPad Prism version 7.00 (GraphPad Software, San Diego, Calif.) was used for IC50 calculation.

Structure (SMILES)	CL [1] [mL/h]	Percentage of extrapolated AUC from T6 h to infinity ([1]; plasma) [%]	T1/2α ([1]; plasma) [min]	T1/2β ([1]; plasma) [min]	half-lives in the second phase (6 h→24 h) compared with FK866 ([1]; plasma, versus FK866)	Cmax ([1]; plasma) [ng/mL]	Tmax ([1]; plasma) [min]	AUC(0-inf) ([1]; plasma) [ng·h/mL]	AUC(0-t) ([1]; plasma) [ng·h/mL]	IC50 [2] [nM]
O=C(/C=C/c1cccnc1F)NCCCCC1CCN(C(=O)c2cccs2)CC1 [MPM-07]	38.5	2.0	21.6	1535	improved and longer half-lives	13200	10	5200	5110	1.5
O=C(/C=C/c1cccnc1)NCCCCC1CCN(C(=O)c2ccccc2)CC1 [FK866, (E)-N-[4-(1-benzoylpiperidin-4-yl)butyl]-3-(pyridin-3-yl)acrylamide, reference compound]	9.6	1.2	27.6	229	–	28100	10	20800	20700	18.4
